Columns and labels:
[1] = tested on: human primary hepatocellular carcinoma model LIX066; assay: LIX066 patient derived xenograft model of hepatocellular carcinoma, antitumor activity; type: in vivo, mice; conditions: Example 3, oral daily 17 days
Procedure: The human primary hepatocellular carcinoma model LIX066 model from ChemPartner (shangpharma.com) were implanted into the female severe combined immunodeficiency (SCID) mice. When the tumors developed in mice, the mice were sacrificed and the tumors were resected and implanted into female nude mice for tumor preservation, histopathology diagnosis and in vivo efficacy study. Solid tumor tissues were depleted of necrotic components, cut into 10-15 mg pieces, and mixed. Three to five pieces were mixed with […] Matrigel and implanted into a flank of 6-8-week-old female NU/NU immune compromised mice weighing 18-20 g nude mice. 30 mice with average tumor volume of 160 mm^3 selected and randomized into 6 groups of 5 mice each. All of the primary human tumors utilized in this study had undergone 3-5 passages in vivo and the tumor histology of each was maintained over the serial transplantation process. Per os (PO) treatment with Compound 1 (300 and 500 mg/kg) alone or in combination with vehicle (control) or palbociclib (100 mg/kg) administered once daily (QD) continued for 17 days. The administration volume (0.1 mL/10 g body weight) was calculated from the individual mouse body weight (BW) before administration. Body weights were measured daily and tumor measurements were performed twice weekly.
(§1) where Day X is any day of measurement
(§2) The anti-tumor effects of the treatment, Partial (PR) and complete regression (CR), stable (SD) and progressive (PD) disease were defined by the Xenograft Model Response Criteria (see below). Mice with >20% body weight loss compared to their Day 1 body weight or bearing tumors with the longest diameter […] were immediately euthanized to prevent any pain or suffering in the animal as according to IACUC guidelines.
Data are expressed as the mean±SEM for Tumor Volume (TV). The differences in TV between groups were analyzed by two way ANOVA followed by Sidak post hoc test. Statistical analyses were performed using the GraphPad Prism version 6 (GraphPad Software, La Jolla, Calif.). […]

[2] = tested on: human hepatocellular cancer cell line JHH7 xenograft; assay: JHH7 xenograft model of hepatocellular carcinoma, antitumor activity; type: in vivo, mice; conditions: PO QD 8 days
Procedure: The cell line used, JHH7, was sourced from Japanese Collection of Research Bioresources Cell Bank (JCRB), verified free of mycobacterium contamination and verified for identity by short tandem repeat analysis of 9 markers.
JHH7 cells were maintained in William's E Medium (Thermo Fisher Scientific, 12551-032) with 10% fetal bovine serum. Cells were maintained prior to and during experiments at 37° C. 5% CO2, and at 95% relative humidity. Cell passage number was limited to between 12 and 20.
The human hepatocellular cancer cell line JHH7 was cultured in William's E Medium (Thermo Fisher Scientific, 12551-032) containing 10% fetal bovine serum at 37° C. in a 5% CO2 atmosphere and kept in exponential growth phase. For harvesting, the cells were washed with phosphate buffered saline, incubated with 0.25% trypsin-EDTA, and suspended in a 1:1 mixture of William's E Medium and Matrigel (Corning) at a final concentration of 5×10^7 cells/mL. To generate xenografts, 0.1-mL of the inoculum was injected subcutaneously into the right flank region of NU/NU immuno compromised 6-8 week old female mice, giving a final concentration of 5×10^6 cells/mouse. When the mean tumor volume (TV) reached approximately 170 mm^3 (10 days after implantation), 144 mice were selected based on their TVs, and were sorted into 18 treatment groups with 8 animals per group. Per os (PO) treatment with Compound 1 (300 and 500 mg/kg) alone or in combination with vehicle (control) or palbociclib (50 and 100 mg/kg) or ribociclib (75 and 150 mg/kg) administered once daily (QD) continued for 8 days. The administration volume (0.1 mL/10 g body weight) was calculated from the individual mouse body weight (BW) before administration. Body weights were measured daily and tumor measurements were performed twice weekly.
as §1, §2
Data are expressed as the mean±SEM for Tumor Volume (TV). The differences in TV between groups were analyzed by two way ANOVA followed by Sidak post hoc test. Statistical analyses were performed using the GraphPad Prism version 6 (GraphPad Software, La Jolla, Calif.).
Progressive disease (PD): 3 consecutive measurements >120% of starting volume or 3 consecutive increasing measurements from best response, Stable disease (SD): 3 consecutive measurements >50% and <120% of starting volume, Partial regression (PR): 3 consecutive measurements <50% of starting volume, Complete regression (CR): 3 consecutive measurements <30 mm^3.

Question: For CC(=O)c1c(C)c2cnc(Nc3ccc(N4CCNCC4)cn3)nc2n(C2CCCC2)c1=O [Palbociclib, 6-acetyl-8-cyclopentyl-5-methyl-2-{[5-(piperazin-1-yl)pyridin-2-yl]amino}pyrido[2,3-d]pyrimidin-7(8H)-one, reference compound], which “Tumor Growth Inhibition % (TGI)” value ([1]; palbociclib 100 mg/kg single agent, vs vehicle controls (P≤0.001)) is on record?
Answer: 62%

Question: And the “Tumor Growth Inhibition % (TGI)” value ([2]; Example 2, palbociclib 50 mg/kg single agent, vs vehicle controls (not significant))?
Answer: 11%

Question: And the “Tumor Growth Inhibition % (TGI)” value ([2]; Example 2, palbociclib 100 mg/kg single agent, vs vehicle controls (P≤0.05))?
Answer: 26%

Question: Which results are given for CN(C)C(=O)c1cc2cnc(Nc3ccc(N4CCNCC4)cn3)nc2n1C1CCCC1 [Ribociclib, 7-Cyclopentyl-2-(5-piperazin-1-yl-pyridin-2-ylamino)-7H-pyrrolo[2,3-d]pyrimidine-6-carboxylic acid dimethylamide, reference compound]?
Answer: Tumor Growth Inhibition % (TGI) ([2]; Example 1, ribociclib 75 mg/kg single agent, vs vehicle controls (not significant)): 13%; Tumor Growth Inhibition % (TGI) ([2]; Example 1, ribociclib 150 mg/kg single agent, vs vehicle controls (P≤0.0001)): 23%

Question: With C=CC(=O)Nc1cc(N2CCN(CC)CC2)ccc1Nc1cc(N(C)C(=O)Nc2c(Cl)c(OC)cc(OC)c2Cl)ncn1 [Compound 1, N-(2-((6-(3-(2,6-dichloro-3,5-dimethoxyphenyl)-1-methylureido)pyrimidin-4-yl)amino)-5-(4-ethylpiperazin-1-yl)phenyl)acrylamide] as the compound, how does the “Tumor Growth Inhibition % (TGI)” value ([1]; Compound 1 300 mg/kg single agent, vs vehicle controls (P≤0.0001)) read?
Answer: 59%

Question: What about the “Tumor Growth Inhibition % (TGI)” value ([1]; Compound 1 500 mg/kg single agent, vs vehicle controls (P≤0.0001)) of the same compound?
Answer: 70%

Question: What about the “Tumor Growth Inhibition % (TGI)” value ([2]; Example 1, Compound 1 300 mg/kg single agent, vs vehicle controls) of the same compound?
Answer: 14%

Question: And the “Tumor Growth Inhibition % (TGI)” value ([2]; Example 1, Compound 1 500 mg/kg single agent, vs vehicle controls)?
Answer: 35%

Question: And the “Tumor Growth Inhibition % (TGI)” value ([2]; Example 2, Compound 1 300 mg/kg single agent, vs vehicle controls (P≤0.01))?
Answer: 12%

Question: What about the “Tumor Growth Inhibition % (TGI)” value ([2]; Example 2, Compound 1 500 mg/kg single agent, vs vehicle controls (P≤0.0001)) of the same compound?
Answer: 32%
